Reference: US8414989B2, “Cyclodextrin compositions, articles, and methods” (Cellresin Technologies, LLC, priority 2011, dated 2013)

Columns and labels:
Format in all cases: physicochemical
[1] = Example 1: 1-MCP headspace release from UV-cured isobornyl acrylate coating with 1-MCP/c/α-CD on PET film (GC-FID); details: 1 cm x 1 cm cured coated square, 250 mL bottle
Experimental: A cyclodextrin inclusion complex is formed from α-cyclodextrin and 1-methyl cyclopropene (1-MCP) using the technique described by Neoh, T. L. et al., J. Agric. Food Chem. 2007, 55, 11020-11026 “Kinetics of Molecular Encapsulation of 1-Methylcyclopropene into α-Cyclodextrin.” The inclusion complex is termed “1-MCP/c/α-CD.” A 500 mL bottle is charged with 97.0 g of isobornyl acrylate, 1.0 g of hexanediol diacrylate, 1.0 g of 1-MCP/c/α-CD, and 1.0 g of […] (IRGACURE® 184, obtained from Ciba Specialty Chemicals Corp. of Tarrytown, N.Y.). The bottle is firmly capped and the components are mixed by shaking the bottle briefly by hand.
About 2 mL of the mixture is removed with a metered dropper and dispensed on an 8.5 inch by 11 inch PET film and drawn down using a metering rod (Mayer rod) having a delivered coating thickness of 25 microns. Then the coated PET film is placed on a flat surface approximately 5 cm beneath a medium pressure mercury arc lamp operating at 200 watts per inch (79 watts per cm). After 30 seconds under the lamp, the film is removed. A silicone coated PET sheet (about 50 microns thick) is placed over the cured coating and allowed to sit on a laboratory bench overnight.
A die cutter is used to cut a 1 cm by 1 cm square of the coated portion of the sheet. […] Headspace concentrations of 1-MCP are measured after 1 hour following introduction of the coated square into bottle. The 1-MCP headspace concentration is quantified using gas chromatography by removing 1 mL of gas from the sample bottle using a gas sampling valve interfaced directly to a GC column having FID detector.
Then 50 μl of deionized water is injected into the jar. […] The sealed jar is allowed to sit on the lab bench for one hour after the injection of water, then a second headspace sample is analyzed. A final headspace sample is analyzed 24 hours after the injection of water. At 1 hour after injection of the water, 0.5 ppm of 1-MCP is measured in the headspace. After 24 hours, 0.5 ppm of 1-MCP is measured in the headspace.

[2] = Control Example A: dissociation of 1-MCP from supplied 1-MCP/c/α-CD powder as a function of added water; details: for Headspace concentration of 1-MCP: 0.1 g 1-MCP/c/α-CD powder, 250 mL bottle, shaken 1 hour, about 20 C
Experimental: A sample of 1-MCP/c/α-CD powder was obtained (AgroFresh of Spring House, Pa.). According to the supplier's specification sheet, 1-MCP was 4.7 wt % of α-CD or 88.7 wt % 1-MCP complex based on a theoretical 1:1 molar ratio of 1-MCP to α-CD; this corresponds to a resulting headspace concentration of 8,600 ppm. A series of tests were conducted to measure the dissociation of 1-MCP from the supplied 1-MCP/c/α-CD as a function of added water. First, 0.1 g aliquots of the supplied 1-MCP/c/α-CD powder were added to each of 5, 250 mL bottles, which were then capped with TEFLON® faced septa. Varying amounts of water were added to the bottles by syringe, and then the bottles were mechanically shaken for one hour, followed by headspace measurement for 1-MCP according to the procedure of Example 3. The amounts of water added per 0.1 g of the supplied 1-MCP/c/α-CD complex, and the resulting headspace measurements after 1 hour at about 20 C, are shown in Table 6.
A polynomial regression was used to calculate the dissociation at 100% RH in the headspace for the five samples of Table 6 (i.e., 4.3 milligrams water per 250 mL volume, see Example 8 for source and calculation of this information). The calculated amount of dissociated 1-MCP at 100% RH was 18 wt-%.

[3] = Example 11: 1-MCP headspace release from UV coating on polyethylene coated paperboard; details: UV coating with 1-MCP/c/α-CD on PE coated paperboard, 5 cm x 5 cm, 250 mL jar, 200 μL water, average
Experimental: A 20 mL bottle was charged with 9.6 g of UV curable coating formulation (VP 10169/60 MF-2NE, obtained from Verga GmbH of Aschau am Inn, Germany). Then 0.4 g of 1-MCP/c/α-CD (4.7% 1-MCP, obtained from AgroFresh of […], Pa.) was added to the bottle. The bottle was firmly capped and the components mixed by shaking the bottle by hand until the contents appeared to be uniformly dispersed, providing a UV curable mixture.
A polyethylene coated paperboard was prepared by heat laminating a 30 μm thick polyethylene film to a 20 cm×20 cm section of 600 μm thick solid bleached sulfate (SBS) paperboard (obtained from Graphic Packaging International of_) using a heated vacuum press. A rubber ink roller was used to deliver a thin (nominally 0.3 μm) coating of the UV curable mixture to the laboratory prepared polyethylene coated paperboard, using the technique of Example 2. A paper cutter was used to cut a 20 cm by 10 cm rectangle of the coated portion of the board. The coated rectangle was passed by hand about 10 cm beneath a medium pressure mercury arc lamp operating at 79 watts per cm. After 1.5 seconds exposure to the lamp, the sample was removed. The cured sample was allowed to sit on a laboratory bench overnight, coating side down.
After curing, 5 cm by 5 cm sections were cut from the 20 cm by 10 cm rectangles. Each section was individually placed into a 250 mL jar (tall clear WM SEPTA-JAR™, Fisher Scientific P/N 05-719-452; obtained from Fisher Scientific of Waltham, Mass.) equipped with a TEFLON™ faced septum (Fisher Scientific P/N 14-965-84). Each jar was injected with 200 μL of deionized water. […] Jar headspace was analyzed for 1-MCP at […] time periods (0.17, 0.5, 1, 2, 4 and 7 hours) after the injection of water, using the analytical technique employed in Example 3. The results exemplify that greater amounts of 1-MCP were released into the headspace from the UV coated substrate with increasing time.

## CC1=CC1 [1-MCP, 1-methylcyclopropene]
[1]; 1 hour after injection of 50 μl water
  Headspace concentration of 1-MCP: 0.5 ppm
[1]; 24 hours after injection of 50 μl water
  Headspace concentration of 1-MCP: 0.5 ppm
[1]; no water added, 1 hour
  Headspace concentration of 1-MCP: No measurable concentration
[2]; 0.25 g H2O
  Headspace concentration of 1-MCP: 3,050 ppm (v/v)
[2]; 0.5 g H2O
  Headspace concentration of 1-MCP: 4,750 ppm (v/v)
[2]; 1.0 g H2O
  Headspace concentration of 1-MCP: 6,850 ppm (v/v)
[2]; 2.0 g H2O
  Headspace concentration of 1-MCP: 9,850 ppm (v/v)
[2]; 3.0 g H2O
  Headspace concentration of 1-MCP: 10,610 ppm (v/v)
[2]; 1.0 grams of water per 0.10 grams 1-MCP/c/α-CD
  1-MCP dissociated from complex: 66%
[2]; polynomial regression of the five samples of Table 6, 4.3 milligrams water per 250 mL volume
  calculated amount of dissociated 1-MCP at 100% RH: 18 wt-%
[2]; supplier's specification sheet 4.7 wt % 1-MCP, 0.1 g in 250 mL bottle
  resulting headspace concentration corresponding to supplier's specification: 8,600 ppm
[3]; 0.17 hours
  Headspace concentration of 1-MCP: 0.16 ppm (v/v)
[3]; 0.5 hours
  Headspace concentration of 1-MCP: 0.63 ppm (v/v)
[3]; 1 hour
  Headspace concentration of 1-MCP: 1.6 ppm (v/v)
[3]; 2 hours
  Headspace concentration of 1-MCP: 3.6 ppm (v/v)
[3]; 4 hours
  Headspace concentration of 1-MCP: 7.3 ppm (v/v)
[3]; 7 hours
  Headspace concentration of 1-MCP: 12.5 ppm (v/v)
